Structures can show the parent of a compound that is named as a salt. Where two headings read alike, the source gives them in different places.
Key:
[1] = tested on: MLKL phosphorylation in HT29-L23 human colorectal adenocarcinoma cells; experiment: MLKL Phosphorylation High-Content Assay; assay type: cell-based; conditions: 6 h, necroptosis induced with TNFα, SMAC mimetic and Z-VAD, read-out: pMLKL (IC50)
How it was run: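 Following fixation and staining for phospho-S358 MLKL with Hoechst nuclear counterstain, high-content imaging quantified phosphorylation in HT29-L23 cells challenged 6 h with TNFα 35 ng/mL, SMAC mimetic 700 nM and Z-VAD 140 nM. Nec-1s at 6.25 μM defined full inhibition; 4-parameter logistic fits yielded IC50 and Ymax.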

[2] = biological target: T1, His-GST-TVMV-hRIPK1 (1-324) (Homo sapiens (Human), UniProt Q13546); experiment: biochemical
[3] = biological target: T1, His-GST-TVMV-hRIPK1 (1-324); experiment: RIPK1 HTRF Binding Assay; conditions: read-out: RIPK1 HTRF (IC50); FRET probe displacement, 1 h at rt

T1 sequence (Q13546 1-324): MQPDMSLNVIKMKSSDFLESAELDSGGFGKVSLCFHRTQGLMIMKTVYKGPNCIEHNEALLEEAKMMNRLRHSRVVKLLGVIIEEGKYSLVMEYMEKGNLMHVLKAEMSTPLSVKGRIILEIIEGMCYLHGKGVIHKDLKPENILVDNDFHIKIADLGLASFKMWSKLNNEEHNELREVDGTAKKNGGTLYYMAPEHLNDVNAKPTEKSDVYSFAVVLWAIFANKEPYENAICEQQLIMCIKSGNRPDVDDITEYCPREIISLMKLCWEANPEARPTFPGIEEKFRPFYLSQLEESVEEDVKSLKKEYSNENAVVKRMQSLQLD

| Compound | IC50 ([1]; Homo sapiens) | IC50 [2] | IC50 [3] | IC50 [1] |
| --- | --- | --- | --- | --- |
| [2H]C([2H])([2H])Oc1ncc(-c2ccc3c(C(=O)NC(C)C)n[nH]c3c2)cc1C(=O)NC(C)c1ccccc1OC(F)(F)F (racemic) [Example 22, (rac)-N-isopropyl-6-(6-methoxyd3-5-((1-(2-(trifluoromethoxy)phenyl)ethyl)carbamoyl)pyridin-3-yl)-1H-indazole-3-carboxamide] | 440 nM | 100 nM |  |  |
| CNC(=O)c1n[nH]c2cc(-c3cnc(OC)c(C(=O)NC(C)c4ccccc4OC(F)(F)F)c3)cc(F)c12 (racemic) [Example 24, 4-fluoro-6-[6-methoxy-5-({1-[2-(trifluoromethoxy)phenyl]ethyl}carbamoyl)pyridin-3-yl]-N-methyl-1H-indazole-3-carboxamide] | 11 nM | 5.4 nM |  |  |
| [2H]C([2H])([2H])Oc1ncc(-c2ccc3c(C(=O)NCC(C)(C)F)n[nH]c3c2)cc1C(=O)N[C@@H]1CN(C(=O)C2CC(F)(F)C2)C[C@@H]1F [Example 193, 6-(5-{[(3R,4S)-1-(3,3-difluorocyclo-butanecarbonyl)-4-fluoropyrrolidin-3-yl]carbamoyl}-6-(deutero)methoxy-pyridin-3-yl)-N-(2-fluoro-2-methyl-propyl)-1H-indazole-3-carboxamide] | 480 nM |  | 260 nM |  |
| [2H]C([2H])([2H])Oc1ncc(-c2ccc3c(C(=O)NC4CC4)n[nH]c3c2)cc1C(=O)N[C@@H](C)c1cc(C(F)(F)F)ccc1F [Example 194, N-cyclopropyl-6-(5-{[(1S)-1-[2-fluoro-5-(trifluoromethyl)phenyl]-ethyl]carbamoyl}-6-(deutero)meth-oxypyridin-3-yl)-1H-indazole-3-carboxamide] | 52 nM |  | 67 nM |  |
| COc1ncc(-c2ccc3c(C(=O)NC4CC4)n[nH]c3c2)cc1C(=O)N[C@@H]1CN(C(=O)C2CCC(F)(F)C2)C[C@@H]1F (stereo partly drawn) [Example 199, N-cyclopropyl-6-(5-{[(3R,4S)-1-(3,3-difluorocyclopentanecarbon-yl)-4-fluoropyrrolidin-3-yl]-carbamoyl}-6-(deutero)methoxy-pyridin-3-yl)-1H-indazole-3-carboxamide, TFA] |  |  | 340 nM | 99 nM |
| [2H]C([2H])([2H])Oc1ncc(-c2ccc3c(C(=O)NC4CC4)n[nH]c3c2)cc1C(=O)NCC(C)(C)C(=O)OC(C)(C)C [Example 200, tert-butyl 3-({5-[3-(cyclopropyl-carbamoyl)-1H-indazol-6-yl]-2-(deutero)methoxypyridin-3-yl}-formamido)-2,2-dimethyl-propanoate] | 79 nM |  | 130 nM |  |
| [2H]C([2H])([2H])Oc1ncc(-c2ccc3c(C(=O)NC4CC4)n[nH]c3c2)cc1C(=O)N[C@H](C)c1cc(OC(F)(F)F)ccc1F [Example 201, N-cyclopropyl-6-(5-{[(1R)-1-[2-fluoro-5-(trifluoromethoxy)-phenyl]ethyl]carbamoyl}-6-(deutero)methoxypyridin-3-yl)-1H-indazole-3-carboxamide] | 110 nM |  | 11 nM |  |
| [2H]C([2H])([2H])Oc1ncc(-c2ccc3c(C(=O)NC4CC4)n[nH]c3c2)cc1C(=O)N[C@H](C)c1cccc(OC(F)(F)F)c1 [Example 202, N-cyclopropyl-6-[6-(deutero)-methoxy-5-{[(1R)-1-[3-(trifluoro-methoxy)phenyl]ethyl]carbam-oyl}pyridin-3-yl]-1H-indazole-3-carboxamide] | 53 nM |  | 36 nM |  |
| [2H]C([2H])([2H])Oc1ncc(-c2ccc3c(C(=O)NC4CC4)n[nH]c3c2)cc1C(=O)NC1CCCC(C(=O)N2CCC(F)(F)C2)C1 (stereo not shown) [Example 203, N-cyclopropyl-6-(5-{[3-(3,3-difluoropyrrolidine-1-carbonyl)-cyclohexyl]carbamoyl}-6-(deutero)methoxypyridin-3-yl)-1H-indazole-3-carboxamide, TFA] | 95 nM |  | 12 nM |  |
| [2H]C([2H])([2H])Oc1ncc(-c2ccc3c(C(=O)NC4CC4)n[nH]c3c2)cc1C(=O)NC1CCCC(C(=O)N2CCCC2)C1 (stereo not shown) [Example 204] | 84 nM |  | 12 nM |  |
| COc1ncc(-c2ccc3c(C(=O)NC4CC4)n[nH]c3c2)cc1C(=O)N[C@H](C)c1cccc(OC(F)(F)F)c1 [Example 205, N-cyclopropyl-6-[6-(deutero)-methoxy-5-{[(1R)-1-[3-(trifluoro-methoxy)phenyl](2,2,2-deutero)-ethyl]carbamoyl}pyridin-3-yl]-1H-indazole-3-carboxamide, TFA] |  |  | 20 nM | 60 nM |
| COc1ncc(-c2ccc3c(C(=O)NC4CC4)n[nH]c3c2)cc1C(=O)N[C@@H](C)c1cc(OC(F)(F)F)ccc1F [Example 206, N-cyclopropyl-6-(5-{[(1S)-1-[2-fluoro-5-(trifluoromethoxy)-phenyl](2,2,2-deutero)ethyl]-carbamoyl}-6-(deutero)methoxy-pyridin-3-yl)-1H-indazole-3-carboxamide] |  |  | 220 nM | 3.8 nM |
| COc1ncc(-c2ccc3c(C(=O)NC4CC4)n[nH]c3c2)cc1C(=O)N[C@H](C)c1cc(OC(F)(F)F)ccc1F [Example 207, N-cyclopropyl-6-(5-{[(1R)-1-[2-fluoro-5-(trifluoromethoxy)-phenyl](2,2,2-deutero)ethyl]-carbamoyl}-6-(deutero)methoxy-pyridin-3-yl)-1H-indazole-3-carboxamide] |  |  | 53 nM | 110 nM |
| COc1ncc(-c2ccc3c(C(=O)NC4CC4)n[nH]c3c2)cc1C(=O)N[C@@H](C)c1cc(C(F)(F)F)ccc1F [Example 208, N-cyclopropyl-6-(5-{[(1S)-1-[2-fluoro-5-(trifluoromethyl)phenyl]-(2,2,2-deutero)ethyl]carbamoyl}-6-(deutero)methoxypyridin-3-yl)-1H-indazole-3-carboxamide, TFA] |  |  | 27 nM | 18 nM |
| [2H]C([2H])([2H])Oc1ncc(-c2ccc3c(C(=O)NC4CC4)n[nH]c3c2)cc1C(=O)N[C@H](C)c1cccc(C(F)(F)F)c1 [Example 210, N-cyclopropyl-6-[6-(deutero)meth-oxy-5-{[(1R)-1-[3-(trifluorometh-yl)phenyl]ethyl]carbamoyl}pyridin-3-yl]-1H-indazole-3-carboxamide] | 88 nM |  | 450 nM |  |
| [2H]C([2H])([2H])NC(=O)c1n[nH]c2cc(-c3cnc(OC([2H])([2H])[2H])c(C(=O)NC(C)c4cc(F)ccc4C(F)(F)F)c3)ccc12 (stereo not shown) [Example 212] | 28 nM |  | 15 nM |  |
| [2H]C([2H])([2H])NC(=O)c1n[nH]c2cc(-c3cnc(OC([2H])([2H])[2H])c(C(=O)N[C@@H](C)c4cccc(C(F)(F)F)c4)c3)ccc12 [Example 214, 6-[6-(deutero)methoxy-5-{[(1S)-1-[3-(trifluoromethyl)phenyl]ethyl]carbam-oyl}pyridin-3-yl]-N-(deutero)methyl-1H-indazole-3-carboxamide] | 36 nM |  | 9.8 nM |  |
| [2H]C([2H])([2H])Oc1ncc(-c2ccc3c(C(=O)NC([2H])([2H])C([2H])([2H])[2H])n[nH]c3c2)cc1C(=O)NC(C)c1cc(F)ccc1C(F)(F)F (stereo not shown) [Example 228, N-[(1,1,2,2,2-deutero)ethyl]-6-[5-({1-[5-fluoro-2-(trifluoromethyl)-phenyl]ethyl}carbamoyl)-6-(deutero)methoxypyridin-3-yl]-1H-indazole-3-carboxamide] | 51 nM |  | 58 nM |  |
| CCNC(=O)c1n[nH]c2cc(-c3cnc(OC)c(C(=O)N[C@H](C)c4cccc(OC(F)(F)F)c4)c3)ccc12 [Example 232, N-[(1,1,2,2,2-deutero)ethyl]-6-[6-(deutero)methoxy-5-{[(1R)-1-[3-(trifluoromethoxy)phenyl](2,2,2-deutero)ethyl]carbamoyl}pyridin-3-yl]-1H-indazole-3-carboxamide] |  |  | 33 nM | 26 nM |
| CCNC(=O)c1n[nH]c2cc(-c3cnc(OC)c(C(=O)N[C@H](C)c4cc(OC(F)(F)F)ccc4F)c3)ccc12 [Example 233, N-[(1,1,2,2,2-deutero)ethyl]-6-(5-{[(1R)-1-[2-fluoro-5-(trifluorometh-oxy)phenyl](2,2,2-deutero)ethyl]-carbamoyl}-6-(deutero)methoxy-pyridin-3-yl)-1H-indazole-3-carbox-amide] |  |  | 54 nM | 77 nM |
| CCNC(=O)c1n[nH]c2cc(-c3cnc(OC)c(C(=O)N[C@H](C)c4cc(C(F)(F)F)ccc4F)c3)ccc12 [Example 234, N-[(1,1,2,2,2-deutero)ethyl]-6-(5-{[(1R)-1-[2-fluoro-5-(trifluorometh-yl)phenyl](2,2,2-deutero)ethyl]-carbamoyl}-6-(deutero)methoxy-pyridin-3-yl)-1H-indazole-3-carbox-amide] |  |  | 8.7 nM | 20 nM |
| CCNC(=O)c1n[nH]c2cc(-c3cnc(OC)c(C(=O)N[C@@H](C)c4cc(C(F)(F)F)ccc4F)c3)ccc12 [Example 236, N-[(1,1,2,2,2-deutero)ethyl]-6-(5-{[(1S)-1-[2-fluoro-5-(trifluorometh-yl)phenyl](2,2,2-deutero)ethyl]-carbamoyl}-6-(deutero)methoxy-pyridin-3-yl)-1H-indazole-3-carbox-amide] |  |  | 37 nM | 40 nM |
| N-[(1,1,2,2,2-deutero)ethyl]-6-(5- {[(1R)-1-[2-fluoro-5-(trifluoro- methoxy)phenyl]ethyl]carbamoyl}- 6-(deutero)methoxypyridin-3-yl)- 1H-indazole-3-carboxamide [Example 225] |  |  | 43 nM | 91 nM |

From patent US12172975B2, “1H-indazole carboxamides as receptor-interacting protein kinase 1 inhibitors (RIPK1)” (BRISTOL-MYERS SQUIBB COMPANY, priority 2018, dated 2024)
